Entries after “also recorded” stand apart in the source; their conditions may differ. Where two headings read alike, the source gives them in different places.
Experiments:
pNFκB/p65 (Ser276) = assay: Aβ-dependent NFκB/p65 phosphorylation at serine 276 in cortical cells, Western blot; assay type: cell-based, rat; details: 10 μM GW5074 + 5 μM Aβ, 48 h, in comparison to Aβ treated cells
[1] = system: embryonic rat cortical cells; assay: Aβ toxicity assay, cell viability by MTT; assay type: cell-based; details: 5 μM Aβ + 10 μM inhibitor, 48 h; Aβ alone 73% (GW5074 experiment), 70% (ZM336372 experiment)
[2] = system: embryonic rat cortical cells; assay: Aβ toxicity assay, calcein-AM/propidium iodide staining; assay type: cell-based; details: 5 μM Aβ + 10 μM GW5074, 48 h
[3] = Kane et al. (2006); cited from earlier work
pNF-κB[Ser276] = pNF-κB[Ser276] levels in cortex of mice, Western blot; assay type: in vivo; details: for levels of pNF-κB[Ser276] vs control Tg mice: cortex, 20 mg/kg/day, four months
Source text: (§1) FIGS. 5A-5E. […] NT, wild type age-matched control littermates.
(§2) Western blotting. […] (1:100) (GenScript Corporation, NJ, USA).

APPswe (Tg) and NT mice [4] = assay: Cognitive interference task of working memory; assay type: in vivo
Source text: Interference test details. Cognitive Interference Task. This task involves two radial arm water maze set-ups in two different rooms, and different sets of visual cues. The task requires animals to remember a set of visual cues, so that following interference with a different set of cues, the initial set of cues can be recalled to successfully solve the radial arm water maze task. A set of […] behavioral measures were examined. Behavioral measures are: A1-A3 (Composite three-trial recall score from first 3 trials performed in RAWM “A”), “B” (proactive interference measure attained from a single trial in RAWM “B”), A4 (retroactive interference measure attained during a single trial in RAWM “A”), and “A5” (delayed-recall measure attained from a single trial in RAWM “A” following a 20 min delay between A4 and A5). As with the standard RAWM task, this interference task involves the platform location being changed daily to a different arm for both of the RAWM set-ups utilized, and different start arms for each day of testing for both RAWM set-ups. For A1 and B trials, the animal is initially allowed one minute to find the platform on their own before they are guided to the platform. Then the actual trial is performed in each case. As with the standard RAWM task, animals were given 60-s to find the escape platform, with the number of errors and escape latency recorded for each trial.
Cognitive interference task. This task involves two RAWM setups in two different rooms, and three different sets of visual cues. The task requires animals to remember a set of visual cues, so that following interference with a different set of cues, the initial set of cues can be recalled to successfully solve the RAWM task. A set of four behavioral measures was examined through six successive daily trials. Behavioral measures were A1-A3 (Composite three-trial recall score from first three trials performed in RAWM “A”), “B” (proactive interference measure attained from a single trial in RAWM “B”), A4 (retroactive interference measure attained during a single trial in RAWM “A”), and “A5” (delayed-recall measure attained from a single trial in RAWM “A” following a 20 min delay between A4 and A5). As with the standard RAWM task, this interference task involves the platform location being changed daily to a different arm for both of the RAWM setups utilized, and different start arms for each day of testing for both RAWM setups. For A1 and B trials, the animal is initially allowed 1 min to find the platform on its own before being guided to the platform. Then the actual trial is performed in each case. Also, between each trial, animals were placed into a Y-maze apparatus for 30 seconds as an inter-trial interfering experience. As with the standard RAWM task, animals were given 60 s to find the escape platform for each trial, with the number of errors and escape latency recorded for each trial.
For statistical analysis of RAWM data, the 8 days of pre-treatment testing (four 2-day blocks) or the 9 days of during-treatment testing (three 3-day blocks) were evaluated for individual blocks, as well as over all blocks, using one-way ANOVAs. Thereafter, post hoc pair-by-pair differences between groups were resolved with the Fisher LSD (least significant difference) test.

PKA [5] = details: cited from earlier work
iNOS = iNOS levels in cortex of mice, Western blot; assay type: in vivo
Source text: as §1, §2

ppErk1/2 = assay: ppERK levels in cortex of mice, Western blot; assay type: in vivo
Method: FIGS. 4A-4C. […] After this time mice were sacrificed and the levels of pcRaf-1[Ser338] and pERK1/2 were analyzed by Western blot as described in Experimental Procedures. […] (n=5) (FIG. 4B) in the cortex than untreated Tg mice (n=4). The differences were significant for ppERKs, *P=0.016 and pcRaf-1[Ser338], *P=0.018. (FIG. 4C) Phosphorylation of cRaf-1 at Ser 259 and Ser 338. […] NT, wild-type age-matched control littermates.
as §2

p-CREB[Ser 133] = assay: CREB phosphorylated at Ser 133 in cortex, Western blot; assay type: in vivo; details: Tg mice, four months treatment, vs control Tg mice
Source text: as §2

pcRaf-1[Ser338] = pcRaf-1[Ser338] levels in cortex of mice, Western blot; assay type: in vivo; details: wild type NT mice
PKA [6] = assay: PKA kinase activity ELISA in brain extracts of treated mice; details: Tg mice, four months treatment
Aβ40 = assay: Total Aβ40 levels in cortex, ELISA; assay type: in vivo; details: Tg mice, Study 2 (4 mo. treatment), ns vs Tg
APPswe (Tg) and NT mice [7] = assay type: in vivo; details: during treatment (20 mg/kg/day)
Source text: RAWM. For the RAWM task of spatial working memory (Arendash et al. (2001b); Arendash et al. (2007); Ethell et al. (2006)), an aluminum insert was placed into a 100 cm circular pool to create six radially distributed swim arms emanating from a central circular swim area (Arendash et al. (2001a); Ethell et al. (2006)). An assortment of 2-D and 3-D visual cues surrounded the pool. The number of errors prior to locating which one of the six swim arms contained a submerged escape platform (9 cm diameter) was determined in each of five trials every day. There was a 20-min time delay between the 4th trial (T4; final acquisition trial) and 5th trial (T5; memory retention trial). […] During each trial (60 s maximum), the mouse was returned to that trial's start arm upon swimming into an incorrect arm and the number of seconds required to locate the submerged platform was recorded. […]
For statistical analysis of RAWM data, the 8 days of pre-treatment testing (four 2-day blocks) or the 9 days of during-treatment testing (three 3-day blocks) were evaluated for individual blocks, as well as over all blocks, using one-way ANOVAs. […] One-way ANOVAs were employed for each of the four behavioral measures analyzed, followed by post hoc Fisher's LSD test to determine group differences. […]

IκBα = IκBα levels in cortex of mice, Western blot; details: two months treatment
Cox-2 = Cox-2 levels in cortex of mice, Western blot; assay type: in vivo; details: for levels of Cox-2 vs control Tg mice: cortex, 20 mg/kg/day, four months
Aβ42 = assay: Total Aβ42 levels in cortex, ELISA; assay type: in vivo; details: Tg mice, ns vs Tg
Method: Determination of Aβ levels. The levels of Aβ1-40 and Aβ1-42 were quantified in the brain tissues by ELISA.
Total Aβ levels. Brain tissues were prepared by sonication of the samples in 5 M guanidine HCl, and 50 mM Tris-HCl. pH 8.0. After sonication, samples were incubated for 3 h at room temperature and centrifuged at 16,000×g for 20 min at 4° C. The supernatants were stored at −80° C. For analysis, the supernatants were diluted using PBS with 5% BSA and 0.03% Tween-20 supplemented with 1× protease inhibitor cocktail (Roche, USA) and further used to determine total Aβ levels using a commercial ELISA kit (Invitrogen, Carlsbad, Calif., USA), according to the manufacturer's recommendations.
Aβ levels represent the concentration of amyloid peptides in the cortex (A, C) and hippocampus (B, D) of the mice expressed as picogram by milligram (pg/mg) of brain tissue. Total peptide levels correspond to the levels found in the supernatant of cortical tissues homogenized in 5 M guanidinium chloride. Soluble Aβ levels correspond to the levels found in the supernatant of hippocampal tissues of the mice homogenized in the Triton-soluble fractions. ns, Not significant (P>0.05).

[8] = wild type mice (data not shown)

Compound: O=C1Nc2ccc(I)cc2/C1=C/c1cc(Br)c(O)c(Br)c1 [GW5074, 5-iodo-3-[(3,5-dibromo-4-hydroxyphenyl)methy-lene]-2-indolinone]
- NFκB/p65 phosphorylation at serine 276 (pNFκB/p65 (Ser276)): nine-fold decrease
- cell survival, % of control levels (MTT) [1]: 93%
- number of PI stained cells after Aβ exposure [2]: decreased dramatically

Compound: CNC(=O)c1cc(Oc2ccc(NC(=O)Nc3ccc(Cl)c(C(F)(F)F)c3)cc2)ccn1 [Sorafenib, 4-(4-phenoxy)-N2-methylpyridine-2 carboxamide 4-methylbenzenesulfonate]
- blood-brain barrier [3]: crosses the blood-brain barrier
- levels of pNF-κB[Ser276] vs control Tg mice (pNF-κB[Ser276]): significantly lower levels
- levels of pNF-κB[Ser276] vs control Tg mice (pNF-κB[Ser276]; listed as sorafenib): significantly reduced
- pNF-κB[Ser276] levels vs untreated wild type mice (pNF-κB[Ser276]; [8]): No differences
- working memory in interference test vs vehicle-treated APPswe mice (APPswe (Tg) and NT mice [4]; APPswe mice, 2 months treatment, p<0.01): significant improvement in working memory
- performance in any measure of cognitive interference testing, NT+sorafenib vs NT (APPswe (Tg) and NT mice [4]; NT mice): no differences in performance
- 20-min delayed recall (A5), beneficial effects (APPswe (Tg) and NT mice [4]; Tg mice, final day of testing): not evident
- three-trial recall (A1-A3) (APPswe (Tg) and NT mice [4]; Tg mice, final day of testing, errors and escape latency): performed identically to NT mice; also recorded: comparable to NT controls
- three-trial recall (A1-A3) (APPswe (Tg) and NT mice [4]; Tg mice, first day of interference testing, compared to NT mice): impaired
- 20-min delayed recall (A5) (APPswe (Tg) and NT mice [4]; Tg mice, first day of testing): significantly better and no different from NT mice; also recorded: much better delayed recall performance
- proactive interference (B) (APPswe (Tg) and NT mice [4]; Tg mice, first day of testing): relatively high escape latency
- proactive interference (B) (APPswe (Tg) and NT mice [4]; Tg mice, last day of testing): performed significantly better than Tg controls and identically to NT mice; also recorded: performed substantially better than Tg controls
- retroactive interference (A4) (APPswe (Tg) and NT mice [4]; first and last day of testing): no effect of genotype or sorafenib treatment
- IC50 (PKA [5]): > 10 µM
- lower expression of iNOS than control Tg mice (iNOS; Tg mice, cortex, 20 mg/kg/day, four months): 81%
- iNOS levels vs untreated wild type mice (iNOS; [8]): No differences
- decrease in levels of ppERK compared to control Tg mice (ppErk1/2; Tg mice, cortex, 20 mg/kg gavage, two months): 29%
- ERK phosphorylation vs untreated NT mice (ppErk1/2; wild type NT mice): No changes
- CREB phosphorylation at Ser 133 in cortex (p-CREB[Ser 133]): significantly increased; also recorded: significantly higher
- cRaf-1 phosphorylation vs untreated NT mice (pcRaf-1[Ser338]): No changes
- PKA activity in cortex (PKA [6]): restored PKA activity in Tg mice to values similar to those observed in NT mice
- PKA activity in cortex (PKA [6]; listed as sorafenib): comparable to NT mice
- Aβ40 total levels (Aβ40): 36,140 ± 9.281 ns, P = 0.5193 pg/mg
- T5 errors over all blocks of RAWM testing (APPswe (Tg) and NT mice [7]; NT mice, NT vehicle 0.9±0.4): 1.1±0.2 errors
- T5 errors over all blocks of RAWM testing (APPswe (Tg) and NT mice [7]; Tg mice, Tg vehicle 1.9±0.3): 1.9±0.2 errors
- higher levels of IκBα protein expression compared to control Tg mice (IκBα): 117%
- levels of Cox-2 vs control Tg mice (Cox-2): lower levels
- levels of Cox-2 vs control Tg mice (Cox-2; listed as sorafenib): substantially lower levels
- Cox-2 levels vs untreated wild type mice (Cox-2; [8]): No differences
- Aβ42 total levels (Aβ42; Study 1 (2 mo. treatment)): 22,570 ± 5,946 ns, P = 0.4568 pg/mg
- Aβ42 total levels (Aβ42; Study 2 (4 mo. treatment)): 71,980 ± 26,210 ns, P = 0.9914 pg/mg

Compound: Cc1ccc(NC(=O)c2cccc(N(C)C)c2)cc1NC(=O)c1ccc(O)cc1 [ZM336372, N-[5-(dimethyl-aminobenzamide)-2-methylphenyl]-4-hydroxybenzamide]
- cell survival, % of control levels (MTT) [1]: 86%

Reference: patent publication US20110243957A1, “MATERIALS AND METHODS FOR PREVENTING OR TREATING NEURODEGENERATIVE CONDITIONS ASSOCIATED WITH ABETA PEPTIDE ACCUMULATION” (University of South Florida, priority 2008, published 2011)
